Reference: US20220125959A1, “PROSTATE-SPECIFIC MEMBRANE ANTIGEN (PSMA) INHIBITORS AS DIAGNOSTIC AND RADIONUCLIDE THERAPEUTIC AGENTS” (FIVE ELEVEN PHARMA INC., priority 2019, published 2022)

Assays:
[1] = system: PC3-PIP (PSMA positive) and PC-3 tumors (PSMA negative); test: Biodistribution of 177Lu labeled compounds 42 and 51 in tumor bearing nude mice; type: in vivo, CD-1 male nude mice
Protocol: For iv injection 150 μL of labeled solution was diluted with saline to 3.75mL. Mice were injected with 150 μL of formulated dose. Injected radioactivity was 100 μCi and PSMA ligand amount was constant at 0.72 nmole/mouse.
Similarly, the tissue distribution of [^177Lu]42 and [^177Lu]51 was evaluated in mice bearing PIP PC3 (PSMA positive) and PC3 (PSMA negative) tumors on the left and right shoulder, respectively, over a period of 24 h (Table 4). […] The tumor specific uptake for [^177Lu]51 was higher than that observed for [^177Lu]42. […] Results of this study lend support for using these dual-targeted ^177Lu labeled agents for treatment of metastatic prostate cancer.

[2] = Stability of injected doses after formulation; type: physicochemical; details: at 24 hr after formulation
How it was run: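 Ligand labeled with ^68Ga (90° C, 10 min) or ^177Lu (95° C, 1 hour) in NaOAc; radiochemical purity checked by radio-HPLC, with stability of formulated doses followed to 2 hr (^68Ga) or 48 hr (^177Lu). Mice received iv 100 μCi, 0.72 nmole ligand/mouse.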

[3] = system: PSMA-positive cell line, PIP PC3; test: In vitro cell uptake, PIP PC3 cells; type: cell-based
How it was run: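 Cellular uptake of [^177Lu]-labelled ligands was measured in PIP PC3 cells seeded at 5×10^5 cells/well in 12-well plates and grown 48 h in 1 mL medium. After two PBS washes and addition of 900 μL fresh medium, triplicate wells were incubated at 37° C. Cells were then washed twice, lysed in 1 mL of 0.5 M NaOH, and gamma-counted, with uptake expressed as % ID.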

[4] = system: PSMA-negative cell line, PC3; test: In vitro cell uptake, PC3 cells; type: cell-based; details: PC3 (do not express PSMA), 60 min
How it was run: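 Cells grown 48 h, washed, then incubated at 37 °C with [^177Lu]-labelled ligand; nonspecific binding defined with 10 μM 2-PMPA. After washing and lysis in 0.5 M NaOH, activity counted in a gamma counter; uptake expressed as % ID, triplicates.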

[5] = PIP PC3, 60 min, with PSMA inhibitor (2-PMPA, 2 uM)

## O=C([O-])CN1CCN(C(CCC(=O)NCC(=O)NC(Cc2ccc(OCC(=O)NC(Cc3ccccc3)C(=O)NCCCCC(NC(=O)NC(CCC(=O)O)C(=O)O)C(=O)O)cc2)C(=O)O)C(=O)[O-])CCN(CC(=O)[O-])CCN(C(CCC(=O)NCC(=O)NC(P(=O)(O)O)P(=O)(O)O)C(=O)O)CC1.[177Lu+3] (stereo not shown) [[^177Lu]42]
[1]; 1 hr
  Biodistribution: Blood: 0.18 ± 0.05 % dose/g
  Biodistribution: Bone: 5.82 ± 1.59 % dose/g
  Biodistribution: Heart: 0.13 ± 0.03 % dose/g
  Biodistribution: Kidney: 27.52 ± 7.47 % dose/g
  Biodistribution: Lg Intestine: 0.11 ± 0.03 % dose/g
  Biodistribution: Liver: 0.12 ± 0.02 % dose/g
  Biodistribution: Lung: 0.38 ± 0.11 % dose/g
  Biodistribution: Muscle: 0.08 ± 0.02 % dose/g
  Biodistribution: PC3 tumor: 0.41 ± 0.10 % dose/g
  Biodistribution: PIP PC3 tumor: 11.29 ± 2.44 % dose/g
  Biodistribution: Pancreas: 0.20 ± 0.09 % dose/g
  Biodistribution: Skin: 0.22 ± 0.05 % dose/g
  Biodistribution: Sm Intestine: 0.24 ± 0.15 % dose/g
  Biodistribution: Spleen: 0.53 ± 0.17 % dose/g
  Biodistribution: Stomach: 0.17 ± 0.07 % dose/g
[1]; 4 hr
  Biodistribution: Blood: 0.02 ± 0.01 % dose/g
  Biodistribution: Bone: 5.62 ± 1.18 % dose/g
  Biodistribution: Heart: 0.06 ± 0.02 % dose/g
  Biodistribution: Kidney: 11.81 ± 5.81 % dose/g
  Biodistribution: Lg Intestine: 1.03 ± 1.01 % dose/g
  Biodistribution: Liver: 0.08 ± 0.02 % dose/g
  Biodistribution: Lung: 0.13 ± 0.04 % dose/g
  Biodistribution: Muscle: 0.05 ± 0.04 % dose/g
  Biodistribution: PC3 tumor: 0.28 ± 0.11 % dose/g
  Biodistribution: PIP PC3 tumor: 7.62 ± 1.60 % dose/g
  Biodistribution: Pancreas: 0.05 ± 0.02 % dose/g
  Biodistribution: Skin: 0.10 ± 0.03 % dose/g
  Biodistribution: Sm Intestine: 0.94 ± 1.12 % dose/g
  Biodistribution: Spleen: 0.18 ± 0.06 % dose/g
  Biodistribution: Stomach: 0.49 ± 0.60 % dose/g
[1]; 24 hr
  Biodistribution: Blood: 0.00 ± 0.00 % dose/g
  Biodistribution: Bone: 4.55 ± 0.26 % dose/g
  Biodistribution: Heart: 0.03 ± 0.01 % dose/g
  Biodistribution: Kidney: 2.62 ± 0.19 % dose/g
  Biodistribution: Lg Intestine: 0.37 ± 0.20 % dose/g
  Biodistribution: Liver: 0.06 ± 0.00 % dose/g
  Biodistribution: Lung: 0.04 ± 0.01 % dose/g
  Biodistribution: Muscle: 0.03 ± 0.02 % dose/g
  Biodistribution: PC3 tumor: 0.11 ± 0.04 % dose/g
  Biodistribution: PIP PC3 tumor: 4.72 ± 1.68 % dose/g
  Biodistribution: Pancreas: 0.01 ± 0.00 % dose/g
  Biodistribution: Skin: 0.05 ± 0.01 % dose/g
  Biodistribution: Sm Intestine: 0.06 ± 0.05 % dose/g
  Biodistribution: Spleen: 0.04 ± 0.01 % dose/g
  Biodistribution: Stomach: 0.14 ± 0.10 % dose/g
[1]; mouse, in vivo
  PC3 (PSMA negative) tumor uptake: very low uptake
  PIP PC3 (PSMA positive) tumor uptake: excellent
  Uptake in bone: high specific uptake in bone
[2]
  Stability of injected doses: stable
[3]; PIP PC3, 5 min
  In vitro cell uptake: 3.3 % ID per 5 × 10^5 cells
[3]; PIP PC3, 15 min
  In vitro cell uptake: 5.5 % ID per 5 × 10^5 cells
[3]; PIP PC3, 30 min
  In vitro cell uptake: 7.6 % ID per 5 × 10^5 cells
[3]; PIP PC3, 60 min
  In vitro cell uptake: 8.6 % ID per 5 × 10^5 cells
[3]; [5]
  In vitro cell uptake: 0.9 % ID per 5 × 10^5 cells
[3]; PIP PC3, 120 min
  In vitro cell uptake: 9.8 % ID per 5 × 10^5 cells
[4]
  In vitro cell uptake: 0.8 % ID per 5 × 10^5 cells

## O=C(O)CC[C@H](NC(=O)N[C@@H](CCCCNC(=O)[C@H](Cc1ccccc1)NC(=O)COc1ccc(C[C@H](NC(=O)CNC(=O)CCC(C(=O)O)N2CCN(CC(=O)O)CCN(CC(=O)O)CCN(CC(=O)O)CC2)C(=O)NCC(=O)NC(P(=O)(O)O)P(=O)(O)O)cc1)C(=O)O)C(=O)O.[177Lu] (stereo partly shown) [[^177Lu]51]
[1]; 1 hr
  Biodistribution: Blood: 0.18 ± 0.04 % dose/g
  Biodistribution: Bone: 6.52 ± 0.34 % dose/g
  Biodistribution: Heart: 0.20 ± 0.06 % dose/g
  Biodistribution: Kidney: 90.59 ± 18.47 % dose/g
  Biodistribution: Lg Intestine: 0.10 ± 0.04 % dose/g
  Biodistribution: Liver: 0.23 ± 0.03 % dose/g
  Biodistribution: Lung: 0.62 ± 0.09 % dose/g
  Biodistribution: Muscle: 0.11 ± 0.03 % dose/g
  Biodistribution: PC3 tumor: 0.53 ± 0.12 % dose/g
  Biodistribution: PIP PC3 tumor: 14.70 ± 1.29 % dose/g
  Biodistribution: Pancreas: 0.37 ± 0.11 % dose/g
  Biodistribution: Skin: 0.35 ± 0.05 % dose/g
  Biodistribution: Sm Intestine: 0.16 ± 0.03 % dose/g
  Biodistribution: Spleen: 1.33 ± 0.41 % dose/g
  Biodistribution: Stomach: 0.11 ± 0.03 % dose/g
[1]; 4 hr
  Biodistribution: Blood: 0.03 ± 0.01 % dose/g
  Biodistribution: Bone: 6.74 ± 0.71 % dose/g
  Biodistribution: Heart: 0.05 ± 0.00 % dose/g
  Biodistribution: Kidney: 35.24 ± 5.28 % dose/g
  Biodistribution: Lg Intestine: 0.22 ± 0.15 % dose/g
  Biodistribution: Liver: 0.16 ± 0.00 % dose/g
  Biodistribution: Lung: 0.20 ± 0.06 % dose/g
  Biodistribution: Muscle: 0.03 ± 0.00 % dose/g
  Biodistribution: PC3 tumor: 0.20 ± 0.03 % dose/g
  Biodistribution: PIP PC3 tumor: 15.12 ± 1.36 % dose/g
  Biodistribution: Pancreas: 0.11 ± 0.03 % dose/g
  Biodistribution: Skin: 0.11 ± 0.01 % dose/g
  Biodistribution: Sm Intestine: 0.21 ± 0.29 % dose/g
  Biodistribution: Spleen: 0.39 ± 0.12 % dose/g
  Biodistribution: Stomach: 0.26 ± 0.23 % dose/g
[1]; 24 hr
  Biodistribution: Blood: 0.00 ± 0.00 % dose/g
  Biodistribution: Bone: 5.51 ± 0.66 % dose/g
  Biodistribution: Heart: 0.03 ± 0.01 % dose/g
  Biodistribution: Kidney: 4.18 ± 1.74 % dose/g
  Biodistribution: Lg Intestine: 0.49 ± 0.34 % dose/g
  Biodistribution: Liver: 0.14 ± 0.02 % dose/g
  Biodistribution: Lung: 0.10 ± 0.04 % dose/g
  Biodistribution: Muscle: 0.02 ± 0.00 % dose/g
  Biodistribution: PC3 tumor: 0.16 ± 0.02 % dose/g
  Biodistribution: PIP PC3 tumor: 10.75 ± 2.52 % dose/g
  Biodistribution: Pancreas: 0.03 ± 0.00 % dose/g
  Biodistribution: Skin: 0.07 ± 0.02 % dose/g
  Biodistribution: Sm Intestine: 0.30 ± 0.33 % dose/g
  Biodistribution: Spleen: 0.15 ± 0.04 % dose/g
  Biodistribution: Stomach: 0.40 ± 0.56 % dose/g
[1]; mouse, in vivo
  Bone uptake compared with [177Lu]42: consistently higher
  PC3 (PSMA negative) tumor uptake: very low uptake
  PIP PC3 (PSMA positive) tumor uptake: excellent
  Tumor specific uptake compared with [177Lu]42: higher
  Uptake in bone: high specific uptake in bone
[2]
  Stability of injected doses: stable
[3]; PIP PC3
  Uptakes compared with reference ligand [177Lu]PSMA-617: much higher uptakes
[3]; PIP PC3, 5 min
  In vitro cell uptake: 4.4 % ID per 5 × 10^5 cells
[3]; PIP PC3, 15 min
  In vitro cell uptake: 8.4 % ID per 5 × 10^5 cells
[3]; PIP PC3, 30 min
  In vitro cell uptake: 13.4 % ID per 5 × 10^5 cells
[3]; PIP PC3, 60 min
  In vitro cell uptake: 17.4 % ID per 5 × 10^5 cells
[3]; [5]
  In vitro cell uptake: 1.1 % ID per 5 × 10^5 cells
[3]; PIP PC3, 120 min
  In vitro cell uptake: 19.3 % ID per 5 × 10^5 cells
[4]
  In vitro cell uptake: 0.7 % ID per 5 × 10^5 cells
